# Reference: US6686445B1, “Synthetic antineoplastic agents derived from dolastatin 15 and methods of making same” (Arizona Board of Regents, acting for and on behalf of …, priority 1997, dated 2004)
# Read-outs that look alike come from different tables or passages of the source. Where a SMILES comes first, the peptide text is derived from it. [ ]: non-standard residue; d: D form. The star is where a group is joined. X1 = COC1=CC(=O)N(C(=O)[C@@H](O*)C(C)C)[C@H]1Cc1ccccc1; NH(2-(2-pyridyl)ethyl) = c1ccc(CCN*)nc1; NMe2Val = CC(C)[C@@H](C(=O)*)N(C)C; NH(thiazol-2-yl) = c1csc(N*)n1; NHPhenethyl = c1ccc(CCN*)cc1; NMeV = CN[C@H](C(=O)O)C(C)C; Hiv = CC(C)[C@H](O)C(=O)O; X2 = c1ccc2ncc(N*)cc2c1; X4 = COc1ccc(CCN*)cc1OC; NHBn = c1ccc(CN*)cc1; NHPh = c1ccc(N*)cc1
# Legend:
# tubulin [1] = test: tubulin polymerization inhibition, 0.8 M glutamate at 30° C.; type: biochemical; details: read-out: tubulin assembly IC50
# Method: (§1) All compounds synthesized were first evaluated for in vitro antitumor activity against murine P388 lymphocytic leukemia cells and against murine L1210 leukemia cells and human CA46 Burkitt lymphoma cells using techniques described by Hamel & Lin (see: HAMEL, E., and LIN, C. M., […], Interaction of combretastatin, a new plant-derived antimitotic agent, with tubulin, Biochemical Pharmacology, 32, 3864). The compounds were also evaluated in the NCI's human tumor 60-cell-line in intro primary screen as described by Monks et al. (see: MONKS, A., SCUDIERO, et al., 1991, New colorimetric cytotoxicity assay for anticancer drug screening, Journal of the National Cancer Institute, 83, 757). Data analyses were performed using methods described by Boyd and Paull (see: BOYD, M. R., et al., 1995, Some practical considerations and applications of the National Cancer Institute in vitro anticancer drug discovery screen, Drug Development Research, 34, 91). A tubulin polymerization inhibition assay was performed according to a modified version of the procedure used previously and described by Muzaffar et al. (see: MUZAFFAR, A., et al., 1990, Antitubulin effects of derivatives of 3-demethylthiocolchicine, methylthio esters of natural colchicinoids, and thioketones derived from thiocolchicine, Comparison with colchicine, Journal of Medicinal Chemistry, 33, 567) to evaluate the effects of dolastatin 15 on cellular microtubule assembly. The new assay for these compounds employed a drug-tubulin preincubation (15 min.) with 10 μM tubulin in 0.8 M glutamate at 30° C., followed by addition of GTP and incubation (20 min.) at 30° C., with tubulin polymerization monitored turbidimetrically in GILFORD recording spectrophotometers.
# Since these high molecular weight polymers, like microtubules, scatter light, they make it impossible to quantify drug effects by turbidimetry or centrifugation. […] (no MgCl2 added to reactions).
# [2] = tested on: human CA46 Burkitt lymphoma cells; test: mitotic arrest in drug-treated CA46 Burkitt cells; type: cell-based; details: 80 nM drug for 20 hours, control cells 3% mitotic
# Method: To further verify the assumption that this entire series of compounds is acting intracellularly by interfering with tubulin function, the drug-treated Burkitt cells for mitotic arrest were analyzed.
# [3] = tested on: murine P388 lymphocytic leukemia cells; test: growth inhibition of murine P388 lymphocytic leukemia cells; type: cell-based; details: dosage inhibiting tumor cell growth by 50%
# Method: as §1
# [4] = tested on: NCI 60-cell-line in vitro human tumor panel; details: read-out: Mean Panel GI50; mean ± S.D. of triplicate tests (* duplicate)
# Method: as §1
# [5] = tested on: murine L1210 leukemia cells; details: read-out: Mouse Leukemia L1210 IC50; cells counted after 24 hours of growth
# Method: as §1
# [6] = tested on: human CA46 Burkitt lymphoma cells; details: read-out: Human CA46 Burkitt Lymphoma IC50; cells counted after 20 hours
# Method: as §1
# Erwinia carotovora = test: antimicrobial disk susceptibility test; type: cell-based; details: twofold dilutions
# Method: Antimicrobial disk susceptibility tests were performed according to the method established by the National Committee for Clinical Laboratory Standards (NCCLS, 1997). MUELLER-HINTON agar was used for susceptibility testing of Staphylococcus aureus, Enterococcus faecalis, Micrococcus luteus, Escherichia coli, Enterobacter cloacae, Bacillus subtilis, Pseudomonas aeruginosa, and Erwinia carotovora, Gonococcal Typing agar for Neisseria gonorrhoeae, and YM agar for Candida albicans and Cryptococcus neoformans. Immediately prior to susceptibility assays, compounds were reconstituted in sterile DMSO and twofold dilutions applied to sterile 6-mm disks. Zones of inhibition were read at 16 hours for bacterial cultures (except for M. luteus) and 42 hours for fungal cultures and M. luteus. MIC determinations were performed in duplicate.
# tubulin [7] = details: cited from earlier work
# tubulin [8] = details: read-out: tubulin polymerization IC50 (new experiments); 1 M monosodium glutamate-1 mM MgCl2; maximum concentration used 40 μM
SMILES,IC50 (tubulin [1]) [nM],% Mitotic Cells [2] [%],Mouse Leukemia P388 ED50 [3] [ng/mL],GI50 [4] [nM],IC50 [5] [nM],IC50 [6] [nM],"Minimum inhibitory concentration, Erwinia carotovora (Erwinia carotovora)","IC50 (tubulin [7]; read-out: tubulin polymerization IC50 (Bai et al. 1992), 10 μM tubulin, 1 M monosodium glutamate-1 mM MgCl2, 20 min at 37° C.) [nM]",interaction with purified tubulin weaker than that of dolastatin 10 (tubulin [7]; relative to dolastatin 10),IC50 (tubulin [8]) [nM]
"CC(C)[C@H](NC(=O)[C@H](C(C)C)N(C)C)C(=O)N(C)[C@H](C(=O)N1CCC[C@H]1C(=O)N1CCC[C@H]1C(=O)NCc1ccccc1)C(C)C [LU103793, N-dimethyl-L-valyl-L-valyl-N-methyl-L-valyl-L-prolyl-L-prolyl-benzamide] (NMe2Val-V[NMeV]PP-NHBn)",4000 ± 600,,,,,,,,,
CC(C)[C@H](NC(=O)[C@H](C(C)C)N(C)C)C(=O)N(C)[C@H](C(=O)N1CCC[C@H]1C(=O)N1CCC[C@H]1C(=O)O[C@H](C(=O)Nc1nccs1)C(C)C)C(C)C [Compound 12p] (NMe2Val-V[NMeV]PP[Hiv]-{NH(thiazol-2-yl)}),8400,40,0.26,1.2,2,4,50-100 μg/disk,,,
COc1ccc(CCNC(=O)[C@@H](OC(=O)[C@@H]2CCCN2C(=O)[C@@H]2CCCN2C(=O)[C@H](C(C)C)N(C)C(=O)[C@@H](NC(=O)[C@H](C(C)C)N(C)C)C(C)C)C(C)C)cc1OC [Compound 12j] (NMe2Val-V[NMeV]PP[Hiv]-X4),,31,0.40,1.5 ± 0.58,2,0.8,50-100 μg/disk,,,
"CC(C)[C@H](NC(=O)[C@H](C(C)C)N(C)C)C(=O)N(C)[C@H](C(=O)N1CCC[C@H]1C(=O)N1CCC[C@H]1C(=O)O[C@H](C(=O)NCCc1ccccc1)C(C)C)C(C)C [Compound 12c, N-[(2S)-O-[(N,N-Dimethyl-valyl)-valyl-(N-methyl-valyl)-prolyl-prolyl]-2-hydroxyisovalerlyl]-2-phenethylamide] (NMe2Val-V[NMeV]PP[Hiv]-NHPhenethyl)",,45,0.26,1.06 ± 0.48,2,0.3,50-100 μg/disk,,,
"COC1=CC(=O)N(C(=O)[C@@H](OC(=O)[C@@H]2CCCN2C(=O)[C@@H]2CCCN2C(=O)[C@H](C(C)C)N(C)C(=O)[C@@H](NC(=O)[C@H](C(C)C)N(C)C)C(C)C)C(C)C)[C@H]1Cc1ccccc1 [Compound 1, dolastatin 15] (NMe2Val-V[NMeV]PP-X1)",5200,31,2.4,1.12 ± 0.5,4,2,3.12-6.25 μg/disk,23000,about 20 fold,19000 ± 300
CC(C)[C@H](NC(=O)[C@H](C(C)C)N(C)C)C(=O)N(C)[C@H](C(=O)N1CCC[C@H]1C(=O)N1CCC[C@H]1C(=O)O[C@H](C(=O)NCc1ccccc1)C(C)C)C(C)C [Compound 12b] (NMe2Val-V[NMeV]PP[Hiv]-NHBn),,46,0.42,0.79 ± 0.1,1,0.3,50-100 μg/disk,,,
CC(C)[C@H](NC(=O)[C@H](C(C)C)N(C)C)C(=O)N(C)[C@H](C(=O)N1CCC[C@H]1C(=O)N1CCC[C@H]1C(=O)O[C@H](C(=O)Nc1cnc2ccccc2c1)C(C)C)C(C)C [Compound 12r] (NMe2Val-V[NMeV]PP[Hiv]-X2),,42,0.29,2.31,2,2,50-100 μg/disk,,,
CC(C)[C@H](NC(=O)[C@H](C(C)C)N(C)C)C(=O)N(C)[C@H](C(=O)N1CCC[C@H]1C(=O)N1CCC[C@H]1C(=O)O[C@H](C(=O)NCCc1ccccn1)C(C)C)C(C)C [Compound 12k] (NMe2Val-V[NMeV]PP[Hiv]-{NH(2-(2-pyridyl)ethyl)}),,30,0.40,3 ± 1.04,4,2,50-100 μg/disk,,,
CC(C)[C@H](NC(=O)[C@H](C(C)C)N(C)C)C(=O)N(C)[C@H](C(=O)N1CCC[C@H]1C(=O)N1CCC[C@H]1C(=O)O[C@H](C(=O)Nc1ccccc1)C(C)C)C(C)C [Compound 12a] (NMe2Val-V[NMeV]PP[Hiv]-NHPh),26000,26,0.52,1.25 ± 0.48,3,2,,,,
